pIC50: −log10 of the molar value.
What was measured:
[1] = target: T1, Phosphatidylinositol 4,5-bisphosphate 3-kinase catalytic subunit delta isoform (Homo sapiens) (UniProt O00329); assay: Inhibition of PI3Kdelta (unknown origin) using biotinylated PIP2 as substrate at 100 nM in presence of streptavidin-APC by FRET assay
T1 sequence (whole entry): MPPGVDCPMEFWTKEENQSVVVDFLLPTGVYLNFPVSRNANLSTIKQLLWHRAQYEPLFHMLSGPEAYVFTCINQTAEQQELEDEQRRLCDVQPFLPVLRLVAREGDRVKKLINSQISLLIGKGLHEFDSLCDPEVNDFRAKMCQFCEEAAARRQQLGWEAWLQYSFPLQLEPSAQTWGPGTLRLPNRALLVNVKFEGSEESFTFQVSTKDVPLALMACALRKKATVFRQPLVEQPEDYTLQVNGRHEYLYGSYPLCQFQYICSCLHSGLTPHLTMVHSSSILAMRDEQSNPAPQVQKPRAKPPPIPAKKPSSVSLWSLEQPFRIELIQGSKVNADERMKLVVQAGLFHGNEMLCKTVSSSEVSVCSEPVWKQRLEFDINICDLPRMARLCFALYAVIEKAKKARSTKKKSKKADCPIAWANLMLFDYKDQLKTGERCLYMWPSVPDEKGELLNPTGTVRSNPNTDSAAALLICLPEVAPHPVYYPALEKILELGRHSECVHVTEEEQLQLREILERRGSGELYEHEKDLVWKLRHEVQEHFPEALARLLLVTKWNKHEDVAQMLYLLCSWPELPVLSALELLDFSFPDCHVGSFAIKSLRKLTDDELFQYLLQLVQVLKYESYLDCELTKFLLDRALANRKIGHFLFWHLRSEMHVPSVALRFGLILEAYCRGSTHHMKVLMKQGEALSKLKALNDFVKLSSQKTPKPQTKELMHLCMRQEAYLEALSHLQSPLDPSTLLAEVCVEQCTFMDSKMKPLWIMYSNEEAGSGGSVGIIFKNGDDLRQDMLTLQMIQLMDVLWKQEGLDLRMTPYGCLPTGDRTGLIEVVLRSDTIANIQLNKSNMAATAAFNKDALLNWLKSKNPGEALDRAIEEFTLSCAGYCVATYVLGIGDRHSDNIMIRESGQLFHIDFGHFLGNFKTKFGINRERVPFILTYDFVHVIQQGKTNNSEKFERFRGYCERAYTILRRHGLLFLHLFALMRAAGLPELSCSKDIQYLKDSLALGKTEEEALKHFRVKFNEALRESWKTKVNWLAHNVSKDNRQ

[2] = Drug metabolism in mouse liver microsomes assessed as UGT-mediated compound glucuronidation by measuring parent compound remaining at 5 uM after 30 mins in presence of UDPGA by LC-MS/MS analysis; assay type: ADME; details: liver microsomes, read-out: Stability
[3] = target: T2, Tyrosine-protein kinase BTK (Homo sapiens, UniProt Q06187); details: at 100 nM
T2 sequence (Q06187 whole entry): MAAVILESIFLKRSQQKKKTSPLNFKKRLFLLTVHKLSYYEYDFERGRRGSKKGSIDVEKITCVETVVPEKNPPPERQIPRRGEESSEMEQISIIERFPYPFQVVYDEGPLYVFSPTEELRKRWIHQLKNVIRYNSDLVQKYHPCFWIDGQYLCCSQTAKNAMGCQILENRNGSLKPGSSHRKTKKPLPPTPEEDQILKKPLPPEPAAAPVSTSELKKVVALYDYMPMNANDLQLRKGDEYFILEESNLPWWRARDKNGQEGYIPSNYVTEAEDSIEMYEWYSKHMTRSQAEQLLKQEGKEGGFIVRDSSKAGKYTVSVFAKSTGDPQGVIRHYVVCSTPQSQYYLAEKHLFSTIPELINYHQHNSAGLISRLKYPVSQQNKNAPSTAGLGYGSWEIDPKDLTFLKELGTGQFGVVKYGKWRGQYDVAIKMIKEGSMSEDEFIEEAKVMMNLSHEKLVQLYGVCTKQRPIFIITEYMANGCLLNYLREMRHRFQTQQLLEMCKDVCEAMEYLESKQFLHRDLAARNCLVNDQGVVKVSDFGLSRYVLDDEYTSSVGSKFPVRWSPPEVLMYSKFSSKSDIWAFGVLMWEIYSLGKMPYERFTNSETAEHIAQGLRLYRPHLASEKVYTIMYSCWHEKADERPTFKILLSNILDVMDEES

[4] = Clearance in mouse plasma at 5 mg/kg, iv or 15 mg/kg, po by HPLC/MS analysis; assay type: ADME, organism-based
[5] = Apparent volume of distribution in mouse plasma at 5 mg/kg, iv or 15 mg/kg, po by HPLC/MS analysis; assay type: ADME, organism-based; details: read-out: Vz
[6] = AUC in mouse plasma at 15 mg/kg, po by HPLC/MS analysis; assay type: ADME, organism-based
[7] = Half life in mouse plasma at 15 mg/kg, po by HPLC/MS analysis; assay type: ADME, organism-based
[8] = Oral bioavailability in mouse plasma at 15 mg/kg by HPLC/MS analysis; assay type: ADME, organism-based
[9] = Drug metabolism in mouse liver microsomes assessed as compound oxidation by measuring parent compound remaining at 1 uM after 30 mins in presence of NADPH by LC-MS/MS analysis; assay type: ADME; details: liver microsomes, read-out: Stability
[10] = Drug metabolism in human liver microsomes assessed as compound oxidation by measuring parent compound remaining at 1 uM after 30 mins in presence of NADPH by LC-MS/MS analysis; assay type: ADME; details: liver microsomes, read-out: Stability
[11] = Drug metabolism in human liver microsomes assessed as UGT-mediated compound glucuronidation by measuring parent compound remaining at 5 uM after 30 mins in presence of UDPGA by LC-MS/MS analysis; assay type: ADME; details: read-out: Stability
[12] = target: T2, Tyrosine-protein kinase BTK
Homo sapiens [13] = species: Homo sapiens; assay: Selectivity ratio of IC50 for PI3Kalpha (unknown origin) to IC50 for PI3Kdelta (unknown origin)
Homo sapiens [14] = species: Homo sapiens; assay: Selectivity ratio of IC50 for PI3Kbeta (unknown origin) to IC50 for PI3Kdelta (unknown origin)
Homo sapiens [15] = species: Homo sapiens; assay: Selectivity ratio of IC50 for PI3Kgamma (unknown origin) to IC50 for PI3Kdelta (unknown origin)
Homo sapiens [16] = species: Homo sapiens; assay: Selectivity ratio of IC50 for human BMX to IC50 for human BTK
Homo sapiens [17] = species: Homo sapiens; assay: Selectivity ratio of IC50 for human TEC to IC50 for human BTK
[18] = target: T3, Phosphatidylinositol 4,5-bisphosphate 3-kinase catalytic subunit delta isoform (Homo sapiens, UniProt O00329); assay: Inhibition of PI3Kdelta (unknown origin) using biotinylated PIP2 as substrate in presence of streptavidin-APC by FRET assay
T3 sequence (O00329 whole entry): T1 sequence (whole entry)

Nc1ncnc2c1c(-c1ccc3c(c1)NCCO3)nn2C1Cc2ccccc2C1
inhibition [1]: 40% | remaining at 0.5 h, 5 µM [2]: 98% | inhibition [3]: 57%

COc1ccc(-c2nn(C3Cc4ccccc4C3)c3ncnc(N)c23)cc1O
clearance [4]: 31.2 mL/min/kg | Vd [5]: 6.56 L/kg | AUC [6]: 2.37 µM·h | half-life [7]: 378 min | bioavailability [8]: 11% | remaining at 0.5 h, 1 µM [9]: 14% | remaining at 0.5 h, 5 µM [2]: 12% | remaining at 0.5 h, 1 µM [10]: 52% | remaining at 0.5 h, 5 µM [11]: 7%

Nc1ncnc2c1c(-c1ccc(Cl)c(O)c1)nn2C1Cc2ccccc2C1
pIC50 [12]: 7.85

Nc1ccc2c(c1)CC(n1nc(-c3cc(F)c4c(c3)NCCO4)c3c(N)ncnc31)C2 (single isomer, unassigned; (-))
Ratio IC50 (Homo sapiens [13]): 17 | Ratio IC50 (Homo sapiens [14]): 44 | Ratio IC50 (Homo sapiens [15]): 7 | Ratio IC50 (Homo sapiens [16]): 1 | Ratio IC50 (Homo sapiens [17]): 7

Nc1ccc2c(c1)CC(n1nc(-c3cc(F)c4c(c3)NCCO4)c3c(N)ncnc31)CC2 (single isomer, unassigned; (-))
pIC50 [18]: 7.14 | pIC50 [12]: 7.72

Nc1ncnc2c1c(-c1cc(O)cc(Cl)c1)nn2C1Cc2ccccc2C1
pIC50 [18]: 8.40 | clearance [4]: 156 mL/min/kg | Vd [5]: 11.5 L/kg | AUC [6]: 0.033 µM·h | half-life [7]: 36 min | bioavailability [8]: 0.8%

Nc1cc(-c2nn(C3Cc4ccccc4C3)c3ncnc(N)c23)ccc1F
inhibition [1]: 8.2% | remaining at 0.5 h, 5 µM [2]: 92% | inhibition [3]: 79%

Nc1ncnc2c1c(-c1cc(F)c3c(c1)NCCO3)nn2C1Cc2ccccc2C1
inhibition [1]: 53% | remaining at 0.5 h, 5 µM [2]: 91% | inhibition [3]: 52%

Nc1ccc2c(c1)CC(n1nc(-c3cc(F)c4c(c3)NCCO4)c3c(N)ncnc31)C2 (stereo in doubt; (+)-32)
Ratio IC50 (Homo sapiens [13]): 6 | Ratio IC50 (Homo sapiens [14]): 34 | Ratio IC50 (Homo sapiens [15]): 2 | Ratio IC50 (Homo sapiens [16]): 4 | Ratio IC50 (Homo sapiens [17]): 20

Nc1ccc2c(c1)CC(n1nc(-c3cc(F)c4c(c3)NCCO4)c3c(N)ncnc31)CC2 (single isomer, unassigned; (+))
pIC50 [18]: 7.26 | pIC50 [12]: 6.75

Nc1ncnc2c1c(-c1cc(O)c(F)c(F)c1)nn2C1Cc2ccccc2C1
pIC50 [18]: 8.52 | inhibition [1]: 87% | clearance [4]: 154 mL/min/kg | Vd [5]: 12.1 L/kg | AUC [6]: 0.073 µM·h | half-life [7]: 57 min | bioavailability [8]: 1.7% | remaining at 0.5 h, 1 µM [9]: 78% | remaining at 0.5 h, 5 µM [2]: 5.1 to 7.1% | remaining at 0.5 h, 1 µM [10]: 75% | remaining at 0.5 h, 5 µM [11]: 3.7% | inhibition [3]: 74%

Cc1ccccc1-n1c(Cn2nc(-c3cc(O)cc(F)c3)c3c(N)ncnc32)nc2cccc(C)c2c1=O
pIC50 [12]: < 5.00

Nc1cc(-c2nn(C3Cc4ccccc4C3)c3ncnc(N)c23)cc(F)c1F
inhibition [1]: 26% | remaining at 0.5 h, 5 µM [2]: 97% | inhibition [3]: 63%

COc1ccc(-c2nn(C3Cc4ccccc4C3)c3ncnc(N)c23)cc1N
inhibition [1]: 14% | remaining at 0.5 h, 5 µM [2]: 89% | inhibition [3]: 72%
